What was measured:
Test in all cases: relative viability (nuclei count vs DMSO), 5 days (fraction); higher = more cells survive
[1] = compound: O=C(CCCCCCNC(=O)c1cnc(N(c2ccccc2)c2ccccc2)nc1)NO [Ricolinostat] + CC(=O)Nc1cccc(-n2c(=O)n(C3CC3)c(=O)c3c(Nc4ccc(I)cc4F)n(C)c(=O)c(C)c32)c1 [Trametinib] (partner 0.02 µM)
Outline: (§1)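 Relative viability equals treated-well nuclei counts divided by vehicle-well nuclei counts. Counts came from 4× images of lung cancer cell lines grown in 1536-well plates for 5 days after pin-tool dosing on the day after seeding. Dosing used one drug alone or a fixed anchor-drug dose plus five library-drug doses (not always all listed) in √10 steps, and values are medians of duplicate plates.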

[2] = compound: O=C(CCCCCCNC(=O)c1cnc(N(c2ccccc2)c2ccccc2)nc1)NO [Ricolinostat] + CC(=O)c1c(C)c2cnc(Nc3ccc(N4CCNCC4)cn3)nc2n(C2CCCC2)c1=O [Palbociclib] (partner 0.5 µM)
Outline: as §1

[3] = compound: O=C(CCCCCCNC(=O)c1cnc(N(c2ccccc2)c2ccccc2)nc1)NO [Ricolinostat] + NC(=O)Nc1cc(-c2cccc(F)c2)sc1C(=O)N[C@H]1CCCNC1 [AZD7762] (partner 0.2 µM)
Outline: as §1

[4] = compound: C1=CC=C(C(=C1)C2=CC=C(C=C2)C3=CSC4=C3C(=C(C(=O)N4)C#N)O)O + CS(=O)(=O)N1CCN(Cc2cc3nc(-c4cccc5[nH]ncc45)nc(N4CCOCC4)c3s2)CC1 [Pictilisib] (partner 1 µM)
Outline: as §1

Cell Line | relative viability ([1]; first compound 0.253 µM) | relative viability ([1]; first compound 0.8 µM) | relative viability ([1]; first compound 2.53 µM) | relative viability ([2]; first compound 0.253 µM) | relative viability ([2]; first compound 0.8 µM) | relative viability ([2]; first compound 2.53 µM) | relative viability ([3]; first compound 0.253 µM) | relative viability ([3]; first compound 0.8 µM) | relative viability ([3]; first compound 2.53 µM) | relative viability ([4]; first compound 0.08 µM) | relative viability ([4]; first compound 0.253 µM) | relative viability ([4]; first compound 0.8 µM) | relative viability ([4]; first compound 2.53 µM) | relative viability ([4]; first compound 8 µM) | relative viability ([1]; first compound 0.08 µM) | relative viability ([2]; first compound 0.08 µM) | relative viability ([3]; first compound 0.08 µM)
NCI-H1648 | 0.512 | 0.489 | 0.519 | 0.305 | 0.252 | 0.196 | 0.651 | 0.524 | 0.494 | – | – | – | – | – | – | – | –
NCI-H1755 | 0.678 | 0.814 | 0.779 | 0.458 | 0.493 | 0.453 | 0.444 | 0.439 | 0.422 | 0.279 | 0.59 | 0.381 | 0.396 | 0.383 | 0.694 | 0.463 | 0.38
SK-LU-1 | 0.52 | 0.475 | 0.396 | 0.377 | 0.377 | 0.366 | – | – | – | 0.426 | 0.532 | 0.57 | 0.61 | 0.508 | 0.476 | 0.4 | –
ABC-1 | – | – | – | 0.631 | 0.8 | 0.612 | 0.788 | 0.748 | 0.617 | 0.678 | 0.881 | 0.949 | 0.59 | 0.548 | – | 0.585 | 0.945
NCI-H1563 | – | – | – | – | – | – | – | – | – | 0.629 | 0.655 | 0.689 | 0.703 | 0.637 | – | – | –
NCI-H2228 | 0.534 | 0.482 | 0.45 | 0.895 | 0.9 | 0.504 | – | – | – | 0.326 | 0.4 | 0.479 | 0.365 | 0.344 | 0.642 | 0.874 | –
NCI-H2342 | 0.807 | 0.831 | 0.78 | 0.473 | 0.509 | 0.577 | 0.443 | 0.531 | 0.451 | – | – | – | – | – | 0.636 | 0.555 | 0.413
IA-LM | – | – | – | – | – | – | – | – | – | 0.273 | 0.452 | 0.287 | 0.369 | 0.238 | – | – | –
A549 | – | – | – | – | – | – | – | – | – | 0.322 | 0.552 | 0.539 | 0.516 | 0.422 | – | – | –
NCI-H1650 | 0.583 | 0.525 | 0.43 | 0.294 | 0.344 | 0.275 | – | – | – | – | 0.855 | 0.681 | 0.53 | 0.501 | 0.791 | 0.322 | –
NCI-H1299 | – | – | – | – | – | – | – | – | – | 1.04 | 0.858 | 0.826 | 0.771 | 0.594 | – | – | –
SK-MES-1 | 0.537 | 0.656 | 0.734 | 0.308 | 0.339 | 0.397 | – | – | – | 0.33 | 0.368 | 0.354 | 0.284 | 0.307 | 0.548 | 0.369 | –
NCI-H661 | 0.569 | 0.592 | 0.568 | 0.381 | 0.415 | 0.364 | – | – | – | 0.331 | 0.425 | 0.333 | 0.39 | 0.349 | 0.498 | 0.426 | –
NCI-H520 | 0.735 | 0.621 | 0.613 | 0.256 | 0.262 | 0.27 | – | – | – | 0.185 | 0.277 | 0.323 | 0.319 | 0.295 | – | – | –
NCI-H2009 | 0.262 | 0.294 | 0.353 | 0.202 | 0.222 | 0.296 | – | – | – | 0.893 | 0.829 | 0.771 | 0.84 | 0.787 | 0.158 | 0.164 | –
COR-L 105 | 0.471 | 0.547 | 0.543 | 0.396 | 0.387 | 0.476 | – | – | – | 0.387 | 0.525 | 0.428 | 0.417 | 0.433 | 0.376 | 0.401 | –
SW 900 | 0.905 | 0.954 | 0.609 | 0.481 | 0.453 | 0.487 | 0.534 | 0.513 | 0.369 | – | – | – | – | – | 0.659 | 0.432 | 0.632
NCI-H1703 | – | – | – | – | – | – | 0.132 | – | 0.11 | 0.236 | 0.292 | 0.25 | 0.259 | 0.24 | – | – | –
SW 1573 | 0.55 | 0.593 | 0.596 | 0.434 | 0.337 | 0.357 | – | – | – | 0.475 | 0.571 | 0.54 | 0.458 | 0.37 | 0.468 | 0.387 | –
NCI-H522 | 0.711 | 0.769 | 0.832 | 1.18 | 1.08 | 1.21 | 0.838 | 0.853 | 0.822 | – | – | – | – | – | 0.742 | 1.14 | 0.877
UMC-11 | 0.684 | 0.623 | 0.265 | 0.338 | 0.339 | 0.295 | – | – | – | 0.695 | 0.717 | 0.855 | 0.829 | 0.778 | 0.644 | 0.368 | –
NCI-H2023 | 0.637 | 0.558 | 0.536 | 0.328 | 0.42 | 0.397 | – | – | – | 0.185 | 0.215 | 0.263 | 0.204 | 0.22 | 0.51 | 0.415 | –
NCI-H596 | 0.751 | 0.785 | 0.904 | – | – | – | 1.12 | 1.08 | 0.686 | 0.178 | 0.407 | 0.395 | 0.373 | 0.378 | 0.818 | – | 0.965
COR-L23 | 0.582 | 0.625 | 0.49 | 0.227 | 0.203 | 0.156 | – | – | – | 0.757 | 0.581 | 0.813 | 0.728 | 0.575 | 0.485 | 0.261 | –
Calu-6 | – | – | – | – | – | – | – | – | – | 0.959 | 0.967 | 1.05 | 0.988 | 0.812 | – | – | –
EBC-1 | – | – | – | – | – | – | – | – | – | 0.353 | 0.429 | 0.346 | 0.343 | 0.368 | – | – | –
